Test results as given in US10577363B2, “Substituted piperidine compounds” (EPIZYME, INC., priority 2014, dated 2020).

target: SMYD3 (Homo sapiens (Human), UniProt Q9H7B4); experiment: SMYD3 biochemical assay (SPA, 3H-SAM methylation of MEKK2 protein substrate); conditions: read-out: SMYD3 Biochem IC50 (μM)*
Method in brief: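 Tritium incorporation into GST-MEKK2 is counted by scintillation proximity after citric acid bead capture. Native human SMYD3 is preincubated with test compound for 30 min at room temperature at pH 8.0 (Tris-Cl, TCEP, BSG, Tween 20) before 3H-SAM and substrate are added; cold SAM at 100 uM final stops turnover.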

Compound | IC50
C[C@@H]1CC(NC(=O)c2cc(C3CC3)on2)CCN1C(=O)C1CC12CCNCC2 (stereo partly drawn) [compound 136, 5-cyclopropyl-N-((2R)-2-methyl-1-(6-azaspiro[2.5]octane-1-carbonyl)piperidin-4-yl)isoxazole-3-carboxamide] | 0.759 µM
C[C@@H]1CC(NC(=O)c2cc(C3CC3)on2)CCN1C(=O)[C@H]1CC[C@H](O)CC1 (stereo partly drawn) [compound 137, 5-cyclopropyl-N-((2R)-1-((1r,4R)-4-hydroxycyclohexane-1-carbonyl)-2-methylpiperidin-4-yl)isoxazole-3-carboxamide] | 41.2 µM
C[C@H]1CC(NC(=O)c2cc(C3CC3)on2)CCN1C[C@H]1CC[C@H](N)CC1 (stereo partly drawn) [compound 138, N-((2S)-1-(((1r,4S)-4-aminocyclohexyl)methyl)-2-methylpiperidin-4-yl)-5-cyclopropylisoxazole-3-carboxamide] | 4.31 µM
C[C@@H]1CC(NC(=O)c2cc(C3CC3)on2)CCN1C(=O)[C@H]1CC[C@H](N(C)C)CC1 (stereo partly drawn) [compound 139, 5-cyclopropyl-N-((2R)-1-((1r,4R)-4-(dimethylamino)cyclohexane-1-carbonyl)-2-methylpiperidin-4-yl)isoxazole-3-carboxamide] | 1.65 µM
CC1CNCCC1CC(=O)N1CCC(NC(=O)c2cc(C3CC3)on2)C[C@H]1C (stereo partly drawn) [compound 140, 5-cyclopropyl-N-((2R)-2-methyl-1-(2-(3-methylpiperidin-4-yl)acetyl)piperidin-4-yl)isoxazole-3-carboxamide] | 0.842 µM
CC1CC(CC(=O)N2CCC(NC(=O)c3cc(C4CC4)on3)C[C@@H]2C)CCN1 (stereo partly drawn) [compound 141, 5-cyclopropyl-N-((2S)-2-methyl-1-(2-(2-methylpiperidin-4-yl)acetyl)piperidin-4-yl)isoxazole-3-carboxamide] | 3.53 µM
C[C@H]1CC(NC(=O)c2cc(C3CC3)on2)CCN1C(=O)CCCN (stereo partly drawn) [compound 142, N-((2S)-1-(4-aminobutanoyl)-2-methylpiperidin-4-yl)-5-cyclopropylisoxazole-3-carboxamide] | 3.65 µM
C[C@@H]1CC(NC(=O)c2cc(C3CC3)on2)CCN1C(=O)[C@H]1CCC[C@@H](N)C1 (stereo partly drawn) [compound 143, N-((2R)-1-((1S,3R)-3-aminocyclohexane-1-carbonyl)-2-methylpiperidin-4-yl)-5-cyclopropylisoxazole-3-carboxamide] | 1.99 µM
C[C@@H]1CC(NC(=O)c2cc(C3CC3)on2)CCN1C(=O)C1CC2(CCNC2)C1 (stereo partly drawn) [compound 144, 5-cyclopropyl-N-((2R)-2-methyl-1-(6-azaspiro[3.4]octane-2-carbonyl)piperidin-4-yl)isoxazole-3-carboxamide] | 0.546 µM
N[C@@H]1CC[C@@H](C(=O)N2CCC(NC(=O)c3cc(C4CC4)on3)CC2)C1 [compound 145, N-(1-((1R,3R)-3-aminocyclopentane-1-carbonyl)piperidin-4-yl)-5-cyclopropylisoxazole-3-carboxamide] | 5.98 µM
C[C@@H]1CN(C(=O)[C@H]2CC[C@H](N)CC2)CC[C@H]1NC(=O)c1cc(C2CC2)on1 [compound 146, N-((3R,4R)-1-((1r,4R)-4-aminocyclohexane-1-carbonyl)-3-methylpiperidin-4-yl)-5-cyclopropylisoxazole-3-carboxamide] | 2.28 µM
C[C@@H]1CN(C(=O)CC2CCNCC2)CC[C@H]1NC(=O)c1cc(C2CC2)on1 [compound 147, 5-cyclopropyl-N-((3R,4R)-3-methyl-1-(2-(piperidin-4-yl)acetyl)piperidin-4-yl)isoxazole-3-carboxamide] | 1.53 µM
CC1(NC(=O)c2cc(C3CC3)on2)CCN(C(=O)[C@H]2CC[C@H](N)CC2)CC1 [compound 150, N-(1-((1r,4r)-4-aminocyclohexane-1-carbonyl)-4-methylpiperidin-4-yl)-5-cyclopropylisoxazole-3-carboxamide] | 0.91 µM
CCOC(=O)C1CN(C(=O)[C@H]2CC[C@H](N)CC2)CCC1NC(=O)c1cc(C2CC2)on1 (some centres unmarked) [compound 151, ethyl 1-((1r,4r)-4-aminocyclohexane-1-carbonyl)-4-(5-cyclopropylisoxazole-3-carboxamido)piperidine-3-carboxylate] | 3.54 µM
N[C@H]1CC[C@H](C(=O)N2CCC(NC(=O)c3cc(C4CC4)on3)C(F)(F)C2)CC1 (some centres unmarked) [compound 152, N-(1-((1r,4r)-4-aminocyclohexane-1-carbonyl)-3,3-difluoropiperidin-4-yl)-5-cyclopropylisoxazole-3-carboxamide] | 2.25 µM
CC1(NC(=O)c2cc(C3CC3)on2)CCN(C(=O)CC2CCNCC2)CC1 [compound 153, 5-cyclopropyl-N-(4-methyl-1-(2-(piperidin-4-yl)acetyl)piperidin-4-yl)isoxazole-3-carboxamide] | 0.848 µM
O=C(NC1CCN(C(=O)CC2CCNCC2)CC1(F)F)c1cc(C2CC2)on1 (centres unmarked) [compound 154, 5-cyclopropyl-N-(3,3-difluoro-1-(2-(piperidin-4-yl)acetyl)piperidin-4-yl)isoxazole-3-carboxamide] | 1.56 µM
CC1(C)CN(C(=O)[C@H]2CC[C@H](N)CC2)CCC1NC(=O)c1cc(C2CC2)on1 (some centres unmarked) [compound 155, N-(1-((1r,4r)-4-aminocyclohexane-1-carbonyl)-3,3-dimethylpiperidin-4-yl)-5-cyclopropylisoxazole-3-carboxamide] | 0.575 µM

Compound | IC50
CC1(C)CN(C(=O)CC2CCNCC2)CCC1NC(=O)c1cc(C2CC2)on1 (centres unmarked) [compound 157, 5-cyclopropyl-N-(3,3-dimethyl-1-(2-(piperidin-4-yl)acetyl)piperidin-4-yl)isoxazole-3-carboxamide] | 0.521 µM
CC1(NC(=O)c2cc(C3CC3)on2)CCN(C(=O)CCCN)CC1 [compound 158, N-(1-(4-aminobutanoyl)-4-methylpiperidin-4-yl)-5-cyclopropylisoxazole-3-carboxamide] | 7.34 µM
CCOC(=O)[C@@H]1CC(NC(=O)c2cc(C3CC3)on2)CCN1C(=O)CCCN (stereo partly drawn) [compound 159, ethyl (2S)-1-(4-aminobutanoyl)-4-(5-cyclopropylisoxazole-3-carboxamido)piperidine-2-carboxylate] | 25.2 µM
CCOC(=O)C1CN(C(=O)CCCN)CCC1NC(=O)c1cc(C2CC2)on1 (centres unmarked) [compound 160, ethyl 1-(4-aminobutanoyl)-4-(5-cyclopropylisoxazole-3-carboxamido)piperidine-3-carboxylate] | 2.23 µM
CC1(C)CN(C(=O)CCCN)CCC1NC(=O)c1cc(C2CC2)on1 (centres unmarked) [compound 161, N-(1-(4-aminobutanoyl)-3,3-dimethylpiperidin-4-yl)-5-cyclopropylisoxazole-3-carboxamide] | 1.25 µM
N[C@H]1CC[C@H](C(=O)N2CCC(NC(=O)c3cc(C4CC4)on3)C[C@H]2c2ccccc2)CC1 (stereo partly drawn) [compound 162, N-((2S)-1-((1r,4S)-4-aminocyclohexane-1-carbonyl)-2-phenylpiperidin-4-yl)-5-cyclopropylisoxazole-3-carboxamide] | > 10 µM
N[C@H]1CC[C@H](C(=O)N2CCC(NC(=O)c3cc(C4CC4)on3)C[C@@H]2c2ccccc2)CC1 (stereo partly drawn) [compound 163, N-((2R)-1-((1r,4R)-4-aminocyclohexane-1-carbonyl)-2-phenylpiperidin-4-yl)-5-cyclopropylisoxazole-3-carboxamide] | 7.17 µM
C[C@@H]1CC(NC(=O)c2cc(C3CC3)on2)CCN1C(=O)C(C)(C)C1CCNCC1 (stereo partly drawn) [compound 164, 5-cyclopropyl-N-((2R)-2-methyl-1-(2-methyl-2-(piperidin-4-yl)propanoyl)piperidin-4-yl)isoxazole-3-carboxamide] | 5.91 µM
C[C@H]1CC(NC(=O)c2cc(C3CC3)on2)CCN1C(=O)C(C)(C)C1CCNCC1 (stereo partly drawn) [compound 165, 5-cyclopropyl-N-((2S)-2-methyl-1-(2-methyl-2-(piperidin-4-yl)propanoyl)piperidin-4-yl)isoxazole-3-carboxamide] | 4.73 µM
CC1CC(CC(=O)N2CCC(NC(=O)c3cc(C4CC4)on3)C[C@H]2C)CCN1 (stereo partly drawn) [compound 166, 5-cyclopropyl-N-((2R)-2-methyl-1-(2-(2-methylpiperidin-4-yl)acetyl)piperidin-4-yl)isoxazole-3-carboxamide] | 0.506 µM
C[C@@H]1CC(NC(=O)c2cc(C3CC3)on2)CCN1C(=O)CC1(O)CCNCC1 (stereo partly drawn) [compound 167, 5-cyclopropyl-N-((2R)-1-(2-(4-hydroxypiperidin-4-yl)acetyl)-2-methylpiperidin-4-yl)isoxazole-3-carboxamide] | 0.911 µM
CCC1(C(=O)N2CCC(NC(=O)c3cc(C4CC4)on3)C[C@H]2C)CCNCC1 (stereo partly drawn) [compound 168, 5-cyclopropyl-N-((2R)-1-(4-ethylpiperidine-4-carbonyl)-2-methylpiperidin-4-yl)isoxazole-3-carboxamide] | 3.18 µM
CCC1(C(=O)N2CCC(NC(=O)c3cc(C4CC4)on3)C[C@@H]2C)CCNCC1 (stereo partly drawn) [compound 169, 5-cyclopropyl-N-((2S)-1-(4-ethylpiperidine-4-carbonyl)-2-methylpiperidin-4-yl)isoxazole-3-carboxamide] | 3.77 µM
C[C@@H]1CC(NC(=O)c2cc(C3CC3)on2)CCN1C(=O)C1(F)CCNCC1 (stereo partly drawn) [compound 170, 5-cyclopropyl-N-((2R)-1-(4-fluoropiperidine-4-carbonyl)-2-methylpiperidin-4-yl)isoxazole-3-carboxamide] | 0.677 µM
C[C@@H]1C[C@H](NC(=O)c2cc(C3CC3)on2)CCN1C(=O)CCCN [compound 171, N-((2R,4R)-1-(4-aminobutanoyl)-2-methylpiperidin-4-yl)-5-cyclopropylisoxazole-3-carboxamide] | 3.11 µM
C[C@@H]1C[C@H](NC(=O)c2cc(C3CC3)on2)CCN1C(=O)CC(O)CN (stereo partly drawn) [compound 172, N-((2R,4R)-1-(4-amino-3-hydroxybutanoyl)-2-methylpiperidin-4-yl)-5-cyclopropylisoxazole-3-carboxamide] | 6.78 µM
C[C@H]1CC(NC(=O)c2cc(C3CC3)on2)CCN1C(=O)CC(O)CN (stereo partly drawn) [compound 173, N-((2S)-1-(4-amino-3-hydroxybutanoyl)-2-methylpiperidin-4-yl)-5-cyclopropylisoxazole-3-carboxamide] | 5.26 µM
